# Measured values reported in patent publication US20230364070A1, “PYRROLO[3,2-C]PYRIDIN-4-ONE DERIVATIVES USEFUL IN THE TREATMENT OF CANCER” (Scorpion Therapeutics, Inc., priority 2020, published 2023).
# Key:
# Assay type in all cases: cell-based
# Ba/F3 cells with EGFR WT = target: T1, Ba/F3 cells with EGFR WT (Homo sapiens, UniProt P00533); assay: EGFR activity: Ba/F3 cell viability (CellTiter-Glo, 72 h), EGFR WT; conditions: read-out: BaF3 WT IC50
# T1 construct: expressed in transfected cells; host or cells: Ba/F3 (murine pro-B cells), retroviral transduction, puromycin selection, maintained with EGF
# T1 sequence (P00533 25-1210): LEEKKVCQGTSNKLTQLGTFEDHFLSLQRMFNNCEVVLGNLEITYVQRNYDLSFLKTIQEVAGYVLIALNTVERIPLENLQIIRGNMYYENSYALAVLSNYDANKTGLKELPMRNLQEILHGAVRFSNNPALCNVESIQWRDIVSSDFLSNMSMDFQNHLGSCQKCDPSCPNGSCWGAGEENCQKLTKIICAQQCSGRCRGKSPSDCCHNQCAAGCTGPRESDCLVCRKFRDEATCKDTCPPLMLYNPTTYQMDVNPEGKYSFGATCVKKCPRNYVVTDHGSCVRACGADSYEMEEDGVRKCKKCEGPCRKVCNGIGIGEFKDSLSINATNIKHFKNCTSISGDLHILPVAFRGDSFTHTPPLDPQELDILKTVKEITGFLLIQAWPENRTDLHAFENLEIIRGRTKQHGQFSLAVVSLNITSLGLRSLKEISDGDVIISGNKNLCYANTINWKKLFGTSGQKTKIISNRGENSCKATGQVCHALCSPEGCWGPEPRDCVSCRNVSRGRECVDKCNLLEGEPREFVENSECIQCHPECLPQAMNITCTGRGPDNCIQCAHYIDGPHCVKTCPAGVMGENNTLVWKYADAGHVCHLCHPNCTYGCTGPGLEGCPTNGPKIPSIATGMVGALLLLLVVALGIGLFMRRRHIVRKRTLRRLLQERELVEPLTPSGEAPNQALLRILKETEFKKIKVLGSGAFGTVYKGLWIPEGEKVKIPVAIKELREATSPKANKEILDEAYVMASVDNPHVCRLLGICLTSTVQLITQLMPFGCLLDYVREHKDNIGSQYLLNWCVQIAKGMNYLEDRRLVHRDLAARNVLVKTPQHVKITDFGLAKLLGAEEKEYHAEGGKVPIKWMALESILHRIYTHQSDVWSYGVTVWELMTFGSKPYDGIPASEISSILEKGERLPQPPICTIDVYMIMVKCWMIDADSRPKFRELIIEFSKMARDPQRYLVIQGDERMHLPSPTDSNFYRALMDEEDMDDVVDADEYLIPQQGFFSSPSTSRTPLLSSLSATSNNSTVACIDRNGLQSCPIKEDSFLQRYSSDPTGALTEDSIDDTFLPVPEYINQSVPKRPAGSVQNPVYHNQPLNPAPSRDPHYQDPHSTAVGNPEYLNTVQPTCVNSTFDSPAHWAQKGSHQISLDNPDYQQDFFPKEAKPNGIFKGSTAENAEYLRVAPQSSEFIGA
# [1] = target: T2, Ba/F3 cells with EGFR exon 20 NPG Ins D770_N771 (Homo sapiens, UniProt P00533, INS770NPG); assay: EGFR activity: Ba/F3 cell viability (CellTiter-Glo, 72 h), EGFR exon 20 NPG insertion; conditions: EGFR exon 20 NPG Ins D770_N771, cell viability, read-out: BaF3 NPG IC50
# T2 construct: expressed in transfected cells; host or cells: Ba/F3 (murine pro-B cells), retroviral transduction, puromycin selection, IL3-independent pool
# T2 sequence (P00533 with tags, fused parts or gaps INS770NPG): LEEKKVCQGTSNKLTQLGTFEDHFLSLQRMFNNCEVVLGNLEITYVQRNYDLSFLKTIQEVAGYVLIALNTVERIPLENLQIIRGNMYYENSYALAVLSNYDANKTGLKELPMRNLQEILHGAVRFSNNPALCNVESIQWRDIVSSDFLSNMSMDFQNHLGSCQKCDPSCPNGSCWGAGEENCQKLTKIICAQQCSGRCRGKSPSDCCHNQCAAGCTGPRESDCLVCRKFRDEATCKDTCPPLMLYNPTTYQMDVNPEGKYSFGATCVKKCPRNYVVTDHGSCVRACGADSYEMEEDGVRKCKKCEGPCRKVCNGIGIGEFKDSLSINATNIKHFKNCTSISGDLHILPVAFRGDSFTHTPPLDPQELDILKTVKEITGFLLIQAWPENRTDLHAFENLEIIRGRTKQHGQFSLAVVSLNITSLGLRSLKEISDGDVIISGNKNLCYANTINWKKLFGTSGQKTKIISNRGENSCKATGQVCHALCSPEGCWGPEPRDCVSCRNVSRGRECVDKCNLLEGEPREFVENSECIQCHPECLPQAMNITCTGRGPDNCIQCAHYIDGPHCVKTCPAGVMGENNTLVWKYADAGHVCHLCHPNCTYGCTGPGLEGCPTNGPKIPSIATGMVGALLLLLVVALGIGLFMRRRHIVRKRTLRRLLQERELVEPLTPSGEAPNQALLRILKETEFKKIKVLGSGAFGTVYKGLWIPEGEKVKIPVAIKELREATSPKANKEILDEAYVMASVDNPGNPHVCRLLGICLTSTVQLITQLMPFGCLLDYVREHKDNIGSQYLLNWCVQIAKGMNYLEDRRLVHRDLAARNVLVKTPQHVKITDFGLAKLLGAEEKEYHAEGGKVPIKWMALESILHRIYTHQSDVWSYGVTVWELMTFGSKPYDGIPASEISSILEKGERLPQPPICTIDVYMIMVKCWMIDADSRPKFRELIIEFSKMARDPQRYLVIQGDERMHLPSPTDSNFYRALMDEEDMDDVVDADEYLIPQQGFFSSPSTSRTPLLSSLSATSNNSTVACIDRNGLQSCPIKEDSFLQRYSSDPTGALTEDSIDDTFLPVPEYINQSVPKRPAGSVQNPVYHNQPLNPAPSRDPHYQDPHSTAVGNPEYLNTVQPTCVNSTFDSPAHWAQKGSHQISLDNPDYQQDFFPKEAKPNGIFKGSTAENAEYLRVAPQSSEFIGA
# [2] = target: T3, Ba/F3 cells with EGFR exon 20 ASV Ins V769_D770 (Homo sapiens, UniProt P00533, INS769ASV); assay: EGFR activity: Ba/F3 cell viability (CellTiter-Glo, 72 h), EGFR exon 20 ASV insertion; conditions: EGFR exon 20 ASV Ins V769_D770, cell viability, read-out: BaF3 ASV IC50
# T3 construct: expressed in transfected cells; host or cells: Ba/F3 (murine pro-B cells), retroviral transduction, puromycin selection, IL3-independent pool
# T3 sequence (P00533 with tags, fused parts or gaps INS769ASV): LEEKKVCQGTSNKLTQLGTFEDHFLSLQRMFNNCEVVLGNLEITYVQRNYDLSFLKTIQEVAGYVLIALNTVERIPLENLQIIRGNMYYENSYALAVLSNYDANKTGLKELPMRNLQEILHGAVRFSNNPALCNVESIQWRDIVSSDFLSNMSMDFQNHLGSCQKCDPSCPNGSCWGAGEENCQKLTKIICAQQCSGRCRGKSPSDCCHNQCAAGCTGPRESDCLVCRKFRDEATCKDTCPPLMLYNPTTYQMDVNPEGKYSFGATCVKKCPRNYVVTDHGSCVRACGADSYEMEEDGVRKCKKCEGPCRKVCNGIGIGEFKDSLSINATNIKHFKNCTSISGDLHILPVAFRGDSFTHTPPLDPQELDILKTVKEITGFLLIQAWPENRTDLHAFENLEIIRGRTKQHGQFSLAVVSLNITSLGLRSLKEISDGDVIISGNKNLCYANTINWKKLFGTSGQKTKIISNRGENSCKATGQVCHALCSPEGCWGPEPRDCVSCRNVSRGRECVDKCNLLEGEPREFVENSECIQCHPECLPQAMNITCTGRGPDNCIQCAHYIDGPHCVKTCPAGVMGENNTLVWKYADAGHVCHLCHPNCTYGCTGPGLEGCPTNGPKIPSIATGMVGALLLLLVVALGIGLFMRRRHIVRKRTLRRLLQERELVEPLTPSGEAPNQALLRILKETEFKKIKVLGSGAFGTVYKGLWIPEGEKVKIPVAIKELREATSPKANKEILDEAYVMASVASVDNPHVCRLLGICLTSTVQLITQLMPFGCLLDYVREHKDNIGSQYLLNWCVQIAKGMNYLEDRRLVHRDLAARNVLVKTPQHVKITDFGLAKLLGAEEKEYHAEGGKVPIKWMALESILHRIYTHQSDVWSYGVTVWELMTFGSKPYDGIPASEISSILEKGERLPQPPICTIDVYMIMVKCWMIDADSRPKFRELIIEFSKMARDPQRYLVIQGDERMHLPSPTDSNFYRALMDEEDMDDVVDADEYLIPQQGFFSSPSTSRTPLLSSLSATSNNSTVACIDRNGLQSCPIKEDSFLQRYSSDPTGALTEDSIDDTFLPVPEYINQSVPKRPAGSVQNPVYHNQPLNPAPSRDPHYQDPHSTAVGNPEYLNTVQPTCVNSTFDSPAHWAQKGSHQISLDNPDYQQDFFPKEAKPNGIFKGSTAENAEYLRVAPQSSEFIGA
# pEGFR in CUTO14 cells = target: T4, pEGFR in CUTO14 cells (Homo sapiens, UniProt P00533, DUP767-769); assay: Inhibitor activity on EGFR phosphorylation (pEGFR AlphaLISA, 2 h), CUTO14 cells
# T4 construct: endogenous in cells; host or cells: CUTO14 cells
# T4 sequence (P00533 with tags, fused parts or gaps DUP767-769): as the sequence (P00533 with tags, fused parts or gaps INS769ASV) above
# Description: CUTO14 cells were obtained from Dr. Robert C. Doebele at the University of Colorado.
# Shake 350 rpm for 1 hr in the dark • 3.4 Prepare donor mix under low light conditions prior to use. Dispense 5 μL of donor mix to all the wells. Mix well on the shaker, seal and wrap in aluminum foil and incubate 1.5 hrs at room temperature in the dark • 3.5 Transfer 18.5 μL mixture to OptiPlate 384, and read using an Envision.
SMILES,IC50 (Ba/F3 cells with EGFR WT) [nM],IC50 [1] [nM],IC50 [2] [nM],IC50 (pEGFR in CUTO14 cells) [nM]
CC#CC(=O)N1CC[C@@H]1COc1cnccc1-c1[nH]c2c(c1Nc1cccc(C(F)F)c1OC)C(=O)NCC2 [compound 446],100 to 1000,< 100,< 100,< 100
C#CC(=O)N1CC[C@@H]1COc1cnccc1-c1[nH]c2c(c1Nc1cccc(Cl)c1OC)C(=O)NCC2 [compound 447],100 to 1000,< 100,< 100,< 100
C=CC(=O)NC(C)(C)COc1cnccc1-c1[nH]c2c(c1Nc1cccc(Cl)c1OC)C(=O)NCC2 [compound 448],100 to 1000,< 100,< 100,< 100
Cc1c(F)cccc1Nc1c(-c2ccncc2C#CC(C)(C)NC(=O)/C=C/CN(C)C)[nH]c2c1C(=O)NCC2 [compound 449],100 to 1000,< 100,< 100,< 100
Cc1c(F)cccc1Nc1c(-c2ccncc2C#C[C@@]2(C)CCCN2C(=O)/C=C/CN(C)C)[nH]c2c1C(=O)NCC2 [compound 450],100 to 1000,< 100,< 100,< 100
Cc1c(F)cccc1Nc1c(-c2ccncc2C#CC23CC(CN2C(=O)/C=C/CN(C)C)C3)[nH]c2c1C(=O)NCC2 [compound 451],100 to 1000,< 100,< 100,< 100
C=CC(=O)N1CC2CC1(C#Cc1cnccc1-c1[nH]c3c(c1Nc1cccc(F)c1C)C(=O)NCC3)C2 [compound 452],100 to 1000,< 100,< 100,< 100
CCc1c(F)cccc1Nc1c(-c2ccncc2C#CC(C)(C)NC(=O)/C=C/CN(C)C)[nH]c2c1C(=O)NCC2 [compound 453],100 to 1000,< 100,< 100,< 100
COc1c(Cl)cccc1Nc1c(-c2ccncc2C#C[C@H]2CCN2C(=O)/C=C/CN(C)C)[nH]c2c1C(=O)NCC2 [compound 456],100 to 1000,< 100,< 100,< 100
COc1c(Cl)cccc1Nc1c(-c2ccncc2C#C[C@@H]2CCN2C(=O)/C=C/CN(C)C)[nH]c2c1C(=O)NCC2 [compound 457],< 100,< 100,< 100,< 100
COc1c(F)cccc1Nc1c(-c2ccncc2C#CC2(C)CCN2C(=O)/C=C/CN(C)C)[nH]c2c1C(=O)NCC2 (stereo not shown) [compound 462],> 1000,> 1000,> 1000,> 1000
COc1c(F)cccc1Nc1c(-c2ccncc2C#CC(C)(C)NC(=O)/C=C/CN2CC(F)C2)[nH]c2c1C(=O)NCC2 [compound 463],> 1000,< 100,100 to 1000,< 100
COc1c(F)cccc1Nc1c(-c2ccncc2C#CC(C)(C)NC(=O)/C=C/CN2CCN(C)CC2)[nH]c2c1C(=O)NCC2 [compound 464],> 1000,> 1000,> 1000,100 to 1000
COc1c(F)cccc1Nc1c(-c2ccncc2C#CC(C)(C)NC(=O)C#CCN(C)C)[nH]c2c1C(=O)NCC2 [compound 465],100 to 1000,< 100,< 100,< 100
C=CC(=O)N1CCN(C)C[C@@H]1COc1cnccc1-c1[nH]c2c(c1Nc1cccc(Cl)c1OC)C(=O)NCC2 [compound 565],> 1000,100 to 1000,100 to 1000,100 to 1000
C=CC(=O)N1CCN(C)C[C@@H]1COc1cnccc1-c1[nH]c2c(c1Nc1cccc(F)c1OC)C(=O)NCC2 [compound 566],> 1000,100 to 1000,> 1000,> 1000
C=C(F)C(=O)N1CC[C@@H]1COc1cnccc1-c1[nH]c2c(c1Nc1cccc(F)c1C)C(=O)NCC2 [compound 567],100 to 1000,< 100,100 to 1000,< 100
C=CC(=O)N1CCN(C)C[C@H]1COc1cnccc1-c1[nH]c2c(c1Nc1cccc(Cl)c1OC)C(=O)NCC2 [compound 568],100 to 1000,< 100,< 100,< 100
C=CC(=O)N1CCN(C)C[C@H]1COc1cnccc1-c1[nH]c2c(c1Nc1cccc(F)c1OC)C(=O)NCC2 [compound 569],100 to 1000,< 100,< 100,< 100
